We go through nine molecules from PubChem BioAssay (NCI).

Molecules are shown by their SMILES.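 Assay format: 96-well plates, 48-hour exposure. At the GI50, growth is halved. The concentration for full growth arrest is given as TGI.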 Bounds are passed on as bounds.

Test systems include EKVX NSCLC; LOX IMVI melanoma; MDA-MB-435; OVCAR-3 ovarian; OVCAR-5 ovarian; RXF 393 renal; SF-295 CNS; SK-MEL-28 melanoma; U251 CNS; UACC-62 melanoma.
Holding throughout (experiment): NCI-60 cell line screen, 48 h

Take `CCOP1(=O)OCC2OC(n3cnc4c(N)ncnc43)C(O)C2O1` (stereo not drawn): the TGI in the assay on EKVX NSCLC, in the assay with LOX IMVI melanoma, with MDA-MB-435, with OVCAR-3 ovarian, with OVCAR-5 ovarian and with RXF 393 renal was more than 100 µM in each case. For the same molecule, the TGI with SF-295 CNS, in the assay with SK-MEL-28 melanoma, in the assay on U251 CNS and in the assay on UACC-62 melanoma was more than 100 µM in each case.

Regarding `CC1(CCCC2(C)CCNC2=O)OCCO1` (stereo not drawn), the TGI with EKVX NSCLC, in the assay with LOX IMVI melanoma, with MDA-MB-435, with OVCAR-3 ovarian, in the assay on OVCAR-5 ovarian and with RXF 393 renal was more than 10 µM throughout. In addition, the TGI in the assay on SF-295 CNS, in the assay on SK-MEL-28 melanoma, in the assay on U251 CNS and in the assay on UACC-62 melanoma was more than 10 µM each time.

Take `O=C(Cn1ccnc1[N+](=O)[O-])NCCO`: the TGI in the assay on EKVX NSCLC, in the assay with LOX IMVI melanoma, in the assay on MDA-MB-435, in the assay with OVCAR-3 ovarian, with OVCAR-5 ovarian and in the assay with RXF 393 renal was more than 100 µM throughout. The TGI with SF-295 CNS, in the assay with SK-MEL-28 melanoma, in the assay with U251 CNS and with UACC-62 melanoma was more than 100 µM in each case.

For `CCc1cc(C(N)=O)ccc1-n1nc(C(C)C)c2c(-n3cnc(-c4cnn(C)c4)c3)ccnc21`, the GI50 with EKVX NSCLC was 16.3 µM; with LOX IMVI melanoma, 0.913 µM; with MDA-MB-435 it was 0.719 µM; in the assay with OVCAR-3 ovarian it was 2.37 µM; with OVCAR-5 ovarian, 15.4 µM; in the assay with RXF 393 renal, 3.09 µM. Also, the GI50 is 0.992 µM in the assay with SF-295 CNS, 1.22 µM in the assay on SK-MEL-28 melanoma, 3.82 µM with U251 CNS and 1.18 µM in the assay with UACC-62 melanoma. For the same molecule, the TGI with EKVX NSCLC is more than 100 µM; in the assay on LOX IMVI melanoma, 5.56 µM; in the assay on MDA-MB-435, more than 100 µM; in the assay with OVCAR-3 ovarian, more than 100 µM; in the assay on OVCAR-5 ovarian, more than 100 µM; in the assay on RXF 393 renal, more than 100 µM. The TGI in the assay with SF-295 CNS was 10.3 µM; in the assay on SK-MEL-28 melanoma, more than 100 µM; with U251 CNS, more than 100 µM; in the assay with UACC-62 melanoma, more than 35.4 µM.

As for `COc1ccc(C(=O)/C=C/c2ccc(Cl)cc2)cc1S(N)(=O)=O`, the GI50 was 4.56 µM with EKVX NSCLC; 1.28 µM in the assay with LOX IMVI melanoma; 4.34 µM in the assay with MDA-MB-435; 2.04 µM in the assay with OVCAR-3 ovarian; 3.08 µM in the assay on OVCAR-5 ovarian; 1.98 µM with RXF 393 renal. The GI50 with SF-295 CNS was 3.04 µM; in the assay on SK-MEL-28 melanoma, 3.24 µM; in the assay with U251 CNS it was 1.96 µM; in the assay on UACC-62 melanoma, 4.88 µM. Besides, the TGI was 18.4 µM in the assay on EKVX NSCLC; 2.65 µM in the assay with LOX IMVI melanoma; 15.6 µM in the assay on MDA-MB-435; 4.45 µM in the assay on OVCAR-3 ovarian; 13.8 µM in the assay with OVCAR-5 ovarian; 3.97 µM with RXF 393 renal. For the same molecule, the TGI in the assay with SF-295 CNS stood at 10.2 µM; with SK-MEL-28 melanoma it was 12.7 µM; with U251 CNS, 4.27 µM; with UACC-62 melanoma it was 17.5 µM.

As to `COc1c2occc2c(OC)c2c(=O)c(S(=O)(=O)NC(=O)Nc3ccc(Cl)cc3)coc12`, the TGI in the assay on EKVX NSCLC, in the assay with LOX IMVI melanoma, with MDA-MB-435, with OVCAR-3 ovarian, with OVCAR-5 ovarian and in the assay with RXF 393 renal was more than 10 µM in each case. Also, the TGI in the assay with SF-295 CNS, with SK-MEL-28 melanoma, in the assay on U251 CNS and with UACC-62 melanoma was more than 10 µM in each case.

For the molecule `C=C1C(=O)O[C@@H]2[C@@H]3O[C@@](C)(CC/C=C(\C)CCC[C@@H]2C)[C@H](O)C[C@@H]13`, the GI50 in the assay with EKVX NSCLC was 5.56 µM; in the assay with LOX IMVI melanoma, 1.77 µM; in the assay with MDA-MB-435, 1.89 µM; in the assay with OVCAR-3 ovarian, 1.7 µM; in the assay with RXF 393 renal it was 1.79 µM; in the assay with SK-MEL-28 melanoma, 3.13 µM. Besides, the GI50 in the assay on U251 CNS is 3.75 µM; with UACC-62 melanoma, 2.05 µM. In addition, the TGI worked out at 20.3 µM in the assay on EKVX NSCLC; 4.03 µM in the assay with LOX IMVI melanoma; 5.47 µM in the assay with MDA-MB-435; 3.34 µM in the assay with OVCAR-3 ovarian; 26.7 µM in the assay with OVCAR-5 ovarian; 3.58 µM in the assay with RXF 393 renal. The TGI in the assay with SF-295 CNS was found to be 27.6 µM; with SK-MEL-28 melanoma, 12.2 µM; in the assay on U251 CNS, 15.6 µM; with UACC-62 melanoma it was 5.11 µM.

As for `COc1cc(-c2cc(-c3ccc(N(C)C)cc3)nc(N3CCC(O)CC3)c2C#N)cc(OC)c1OC`, the GI50 in the assay with EKVX NSCLC is 0.461 µM; in the assay with LOX IMVI melanoma it was 0.0455 µM; in the assay with MDA-MB-435, 0.325 µM; with OVCAR-3 ovarian, 1.46 µM; in the assay on OVCAR-5 ovarian it was 0.459 µM; in the assay on RXF 393 renal, 0.177 µM. Besides, the GI50 was 0.212 µM in the assay on SF-295 CNS, 0.992 µM with SK-MEL-28 melanoma, 0.527 µM with U251 CNS and 0.277 µM in the assay with UACC-62 melanoma. In addition, the TGI was more than 100 µM with EKVX NSCLC; 0.205 µM in the assay with LOX IMVI melanoma; 1.27 µM with MDA-MB-435; 3.97 µM with OVCAR-3 ovarian; more than 36.3 µM in the assay on OVCAR-5 ovarian; 3.27 µM with RXF 393 renal. In addition, the TGI with SF-295 CNS was 0.518 µM; in the assay with SK-MEL-28 melanoma, 3.23 µM; in the assay on U251 CNS, 2.83 µM; in the assay with UACC-62 melanoma, 0.741 µM.

With `CCCCc1ccc2nc(NC(=O)OC)[nH]c2c1`, the GI50 is 0.855 µM with EKVX NSCLC; 0.0789 µM in the assay with LOX IMVI melanoma; 0.0148 µM with MDA-MB-435; 0.0228 µM in the assay on OVCAR-3 ovarian; 1.4 µM with OVCAR-5 ovarian; 0.0929 µM with RXF 393 renal. Moreover, the GI50 is 0.0299 µM in the assay with SF-295 CNS, 0.087 µM in the assay on SK-MEL-28 melanoma, 0.0533 µM in the assay with U251 CNS and 0.0451 µM in the assay with UACC-62 melanoma. Besides, the TGI is more than 100 µM in the assay on EKVX NSCLC; more than 55.9 µM in the assay with LOX IMVI melanoma; 0.0379 µM with MDA-MB-435; 0.0502 µM with OVCAR-3 ovarian; more than 100 µM in the assay with OVCAR-5 ovarian; 20.1 µM in the assay on RXF 393 renal. Further, the TGI is 0.475 µM in the assay with SF-295 CNS, 35.3 µM in the assay on SK-MEL-28 melanoma, 19.4 µM in the assay on U251 CNS and more than 59.1 µM in the assay on UACC-62 melanoma.
